Tests used:
[1] = biological target: T1, human PPAR alpha (Homo sapiens, UniProt Q07869); assay: GAL4-PPAR ligand binding domain luciferase reporter transactivation assay in transiently transfected U2-OS cells; format: cell-based; settings: concentration giving 50% of the maximal activation obtained by the reference compound (ETYA), about 24 hours exposure
T1 construct: expressed in transfected cells; host or cells: U2-OS (human osteogenic sarcoma), transient transfection by electroporation with a pSG5-based expression vector
T1 sequence (Q07869 239-466 limits assumed): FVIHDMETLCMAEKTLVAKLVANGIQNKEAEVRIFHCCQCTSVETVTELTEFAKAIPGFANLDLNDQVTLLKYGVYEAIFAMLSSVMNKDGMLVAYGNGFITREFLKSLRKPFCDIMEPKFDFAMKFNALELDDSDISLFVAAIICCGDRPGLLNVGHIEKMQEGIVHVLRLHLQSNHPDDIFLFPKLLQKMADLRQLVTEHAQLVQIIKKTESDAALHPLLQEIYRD
Description: (§1) Compounds were dissolved in DMSO to obtain 16 mM stock solutions. Before assays, stock solutions were further diluted in DMSO and culture media
(§2) U2-OS, (Osteogenic sarcoma, Human) was purchased from ATCC, USA. Cells were expanded and refrozen in batches from passage number six. Cells were cultured in Dulbecco's modified Eagle medium (DMEM) with 25 mM glucose, 2 mM glutamine or 4 mM L-alanyl-L-glutamine, 10% fetal calf serum, at 5% CO2. Phosphate buffered saline (PBS) without addition of calcium or magnesium was used. All cell culture reagents were from Gibco (USA) and 96-well cell culture plates were purchased from Wallach.
(§3) Standard recombinant DNA techniques were carried out as described by Ausubel (7). The Luciferase reporter vector, pGL5UAS (clone consists of five copies of the GAL4 DNA binding sequence, 5′-[…]-3′, cloned into the SacI/XhoI sites of pGL3-Promoter (Promega). The SacI/XhoI fragment carrying the UAS sites was constructed using annealed overlapping oligonucleotides.
(§4) Expression vectors used are based upon pSG5 (Stratagene). All vectors contain an EcoRI/NheI fragment encoding the DNA binding domain of GALA (encoding amino acid positions 1-145 of database accession number P04386) followed by an in-frame fusion to a fragment encoding the nuclear localisation sequence from T antigen of Polyoma Virus. […]

[2] = biological target: T2, mouse PPAR gamma (Mus musculus, UniProt P37238); assay: as above; format: cell-based; settings: concentration giving 50% of the maximal activation obtained by the reference compound (pioglitazone), about 24 hours exposure
T2 construct: expressed in transfected cells; host or cells: U2-OS (human osteogenic sarcoma), transient transfection by electroporation with a pSG5-based expression vector
T2 sequence (P37238 238-503 limits assumed): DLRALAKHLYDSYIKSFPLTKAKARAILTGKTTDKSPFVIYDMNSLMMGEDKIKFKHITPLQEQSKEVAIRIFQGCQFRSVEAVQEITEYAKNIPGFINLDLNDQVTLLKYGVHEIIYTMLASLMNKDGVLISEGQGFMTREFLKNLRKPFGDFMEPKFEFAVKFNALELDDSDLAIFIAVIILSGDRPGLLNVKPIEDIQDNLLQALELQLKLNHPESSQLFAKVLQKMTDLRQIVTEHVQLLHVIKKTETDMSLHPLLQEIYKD
Description: as §1, §2, §3, §4

EC50 [1]: 2.96 µM
EC50 [2]: 3.05 µM
SMILES: O=C(Cc1ccc(OCc2ccccc2C(=O)O)cc1)NCc1ccc(C(F)(F)F)cc1 [Example 2, 2-{[4-(2-Oxo-2-{[4-(trifluoromethyl)benzyl]amino}ethyl)phenoxy]methyl}benzoic acid]
